The record followed here is publication doi:10.1101/2023.03.24.534094v2 (biorxiv, 2023).

One assay has as its target GAK (Homo sapiens, UniProt O14976). The experiment in a line: NanoBRET target engagement. It counts as cell-based. (BRET reads energy transfer from a luciferase to a nearby fluorophore.)
The target in another assay is T1, MST2 (Homo sapiens, UniProt Q13188).
T1 sequence (Q13188 1-491): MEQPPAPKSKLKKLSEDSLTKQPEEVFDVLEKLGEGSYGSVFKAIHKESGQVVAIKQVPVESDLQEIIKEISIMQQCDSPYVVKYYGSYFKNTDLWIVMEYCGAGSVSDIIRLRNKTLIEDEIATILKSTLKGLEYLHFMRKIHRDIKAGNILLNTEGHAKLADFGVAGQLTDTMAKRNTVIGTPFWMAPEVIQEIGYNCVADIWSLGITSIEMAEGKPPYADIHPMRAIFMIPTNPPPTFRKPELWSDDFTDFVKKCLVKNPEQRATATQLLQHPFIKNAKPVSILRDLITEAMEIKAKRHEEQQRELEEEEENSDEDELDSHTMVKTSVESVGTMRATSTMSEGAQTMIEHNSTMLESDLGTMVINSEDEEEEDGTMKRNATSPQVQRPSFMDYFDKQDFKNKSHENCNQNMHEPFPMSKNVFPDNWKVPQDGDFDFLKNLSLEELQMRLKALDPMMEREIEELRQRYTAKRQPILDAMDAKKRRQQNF
The experiment in a line: biochemical.

The target in another assay is T2, BMX (Homo sapiens, UniProt P51813).
T2 sequence (P51813 1-675): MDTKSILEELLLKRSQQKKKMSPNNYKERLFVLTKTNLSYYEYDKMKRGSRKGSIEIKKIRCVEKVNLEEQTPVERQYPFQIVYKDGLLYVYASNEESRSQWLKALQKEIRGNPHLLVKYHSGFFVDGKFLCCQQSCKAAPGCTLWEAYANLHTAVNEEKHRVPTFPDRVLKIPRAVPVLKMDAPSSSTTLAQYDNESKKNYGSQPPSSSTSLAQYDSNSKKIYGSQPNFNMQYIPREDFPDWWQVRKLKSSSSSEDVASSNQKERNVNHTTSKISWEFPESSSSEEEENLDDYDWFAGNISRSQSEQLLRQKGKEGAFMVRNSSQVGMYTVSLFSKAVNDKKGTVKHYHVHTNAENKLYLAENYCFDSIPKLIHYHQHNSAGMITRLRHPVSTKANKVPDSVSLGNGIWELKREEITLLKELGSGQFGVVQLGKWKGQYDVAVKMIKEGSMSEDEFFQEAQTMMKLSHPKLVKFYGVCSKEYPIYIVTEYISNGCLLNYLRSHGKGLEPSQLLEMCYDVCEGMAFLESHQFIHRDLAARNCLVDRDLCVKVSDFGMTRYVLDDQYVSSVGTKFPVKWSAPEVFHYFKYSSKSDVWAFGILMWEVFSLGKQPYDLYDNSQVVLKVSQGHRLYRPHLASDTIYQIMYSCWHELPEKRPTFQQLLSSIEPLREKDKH
Briefly: NanoBRET target engagement. It counts as cell-based.

The target in the next assay is EpHA2 (kinase domain) (Homo sapiens, UniProt P29317). Briefly: X-ray crystal structure. The following applies: co-crystal, 293 K. It counts as binding.
EpHA2 (kinase domain), sequence (P29317 596-900): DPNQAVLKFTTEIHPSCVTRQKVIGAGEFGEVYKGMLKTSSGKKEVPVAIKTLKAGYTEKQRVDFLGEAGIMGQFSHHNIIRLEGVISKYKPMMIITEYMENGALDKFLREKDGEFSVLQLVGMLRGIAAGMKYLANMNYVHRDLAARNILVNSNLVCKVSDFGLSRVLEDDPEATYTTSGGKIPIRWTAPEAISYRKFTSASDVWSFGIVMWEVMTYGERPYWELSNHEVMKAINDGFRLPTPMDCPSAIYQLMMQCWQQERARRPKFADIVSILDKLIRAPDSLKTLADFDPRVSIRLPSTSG
A further assay deals with MSSK1 (Homo sapiens, UniProt Q9UPE1). The experiment in a line: biochemical. The note with it: read-out: dTm 12.
MSSK1, sequence (Q9UPE1 whole entry): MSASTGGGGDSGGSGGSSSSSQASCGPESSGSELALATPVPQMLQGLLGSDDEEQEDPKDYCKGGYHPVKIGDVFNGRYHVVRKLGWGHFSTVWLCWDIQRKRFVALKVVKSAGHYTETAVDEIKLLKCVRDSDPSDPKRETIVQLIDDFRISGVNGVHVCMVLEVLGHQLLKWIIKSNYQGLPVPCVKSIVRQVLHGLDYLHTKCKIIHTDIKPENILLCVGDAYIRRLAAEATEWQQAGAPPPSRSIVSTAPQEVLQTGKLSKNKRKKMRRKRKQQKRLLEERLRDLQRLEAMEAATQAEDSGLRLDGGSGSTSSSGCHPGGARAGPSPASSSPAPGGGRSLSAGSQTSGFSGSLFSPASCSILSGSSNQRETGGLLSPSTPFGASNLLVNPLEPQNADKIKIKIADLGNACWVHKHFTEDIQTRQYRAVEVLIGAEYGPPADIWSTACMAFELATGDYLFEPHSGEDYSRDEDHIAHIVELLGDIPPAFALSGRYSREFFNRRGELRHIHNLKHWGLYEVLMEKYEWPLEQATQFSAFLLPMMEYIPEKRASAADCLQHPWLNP
Another assay concerns the target SLK (Homo sapiens, UniProt Q9H2G2). Briefly: biochemical. The following applies: read-out: dTm 12.
The next assay concerns the target CK1e (Homo sapiens, UniProt P49674). Briefly: biochemical. The note with it: read-out: dTm 12.
The next assay deals with Erk3 (Homo sapiens, UniProt Q16659). Briefly: biochemical. The following applies: read-out: dTm 12.
Erk3, sequence (Q16659 whole entry): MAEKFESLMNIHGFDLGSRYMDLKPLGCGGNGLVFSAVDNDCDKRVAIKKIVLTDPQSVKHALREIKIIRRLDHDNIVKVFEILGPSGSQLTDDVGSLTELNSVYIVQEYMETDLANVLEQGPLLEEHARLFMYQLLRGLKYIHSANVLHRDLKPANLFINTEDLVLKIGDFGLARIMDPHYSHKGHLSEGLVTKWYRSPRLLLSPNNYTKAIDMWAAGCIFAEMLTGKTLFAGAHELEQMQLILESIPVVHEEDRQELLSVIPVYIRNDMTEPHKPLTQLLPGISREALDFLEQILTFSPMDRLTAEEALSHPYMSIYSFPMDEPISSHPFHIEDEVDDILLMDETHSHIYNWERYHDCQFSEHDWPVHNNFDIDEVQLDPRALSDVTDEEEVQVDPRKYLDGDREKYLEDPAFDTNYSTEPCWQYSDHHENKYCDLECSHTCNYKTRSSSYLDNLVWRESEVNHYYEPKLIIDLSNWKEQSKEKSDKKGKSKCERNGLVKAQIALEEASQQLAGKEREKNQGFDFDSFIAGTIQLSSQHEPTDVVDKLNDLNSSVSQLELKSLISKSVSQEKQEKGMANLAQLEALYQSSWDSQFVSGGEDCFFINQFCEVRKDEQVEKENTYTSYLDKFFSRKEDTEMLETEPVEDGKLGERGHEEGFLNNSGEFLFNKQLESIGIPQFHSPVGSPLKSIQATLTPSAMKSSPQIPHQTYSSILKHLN

Structures are written as SMILES. Where only a bound is given, the exact number is not on record here.

For orientation: IC50 means the concentration that gives 50% inhibition. Higher therefore signals lower potency.

CK1e, sequence (P49674 whole entry): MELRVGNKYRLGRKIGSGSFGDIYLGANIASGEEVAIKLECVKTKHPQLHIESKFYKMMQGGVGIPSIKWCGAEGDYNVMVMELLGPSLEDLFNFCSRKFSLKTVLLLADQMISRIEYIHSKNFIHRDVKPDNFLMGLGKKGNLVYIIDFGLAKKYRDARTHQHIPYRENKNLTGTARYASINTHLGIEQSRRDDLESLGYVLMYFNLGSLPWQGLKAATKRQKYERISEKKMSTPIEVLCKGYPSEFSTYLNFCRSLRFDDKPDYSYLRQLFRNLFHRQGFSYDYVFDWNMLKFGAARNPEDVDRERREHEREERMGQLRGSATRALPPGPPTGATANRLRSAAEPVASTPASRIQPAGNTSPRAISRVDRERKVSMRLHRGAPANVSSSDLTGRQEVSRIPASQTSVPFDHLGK
GAK, sequence (O14976 2-1311): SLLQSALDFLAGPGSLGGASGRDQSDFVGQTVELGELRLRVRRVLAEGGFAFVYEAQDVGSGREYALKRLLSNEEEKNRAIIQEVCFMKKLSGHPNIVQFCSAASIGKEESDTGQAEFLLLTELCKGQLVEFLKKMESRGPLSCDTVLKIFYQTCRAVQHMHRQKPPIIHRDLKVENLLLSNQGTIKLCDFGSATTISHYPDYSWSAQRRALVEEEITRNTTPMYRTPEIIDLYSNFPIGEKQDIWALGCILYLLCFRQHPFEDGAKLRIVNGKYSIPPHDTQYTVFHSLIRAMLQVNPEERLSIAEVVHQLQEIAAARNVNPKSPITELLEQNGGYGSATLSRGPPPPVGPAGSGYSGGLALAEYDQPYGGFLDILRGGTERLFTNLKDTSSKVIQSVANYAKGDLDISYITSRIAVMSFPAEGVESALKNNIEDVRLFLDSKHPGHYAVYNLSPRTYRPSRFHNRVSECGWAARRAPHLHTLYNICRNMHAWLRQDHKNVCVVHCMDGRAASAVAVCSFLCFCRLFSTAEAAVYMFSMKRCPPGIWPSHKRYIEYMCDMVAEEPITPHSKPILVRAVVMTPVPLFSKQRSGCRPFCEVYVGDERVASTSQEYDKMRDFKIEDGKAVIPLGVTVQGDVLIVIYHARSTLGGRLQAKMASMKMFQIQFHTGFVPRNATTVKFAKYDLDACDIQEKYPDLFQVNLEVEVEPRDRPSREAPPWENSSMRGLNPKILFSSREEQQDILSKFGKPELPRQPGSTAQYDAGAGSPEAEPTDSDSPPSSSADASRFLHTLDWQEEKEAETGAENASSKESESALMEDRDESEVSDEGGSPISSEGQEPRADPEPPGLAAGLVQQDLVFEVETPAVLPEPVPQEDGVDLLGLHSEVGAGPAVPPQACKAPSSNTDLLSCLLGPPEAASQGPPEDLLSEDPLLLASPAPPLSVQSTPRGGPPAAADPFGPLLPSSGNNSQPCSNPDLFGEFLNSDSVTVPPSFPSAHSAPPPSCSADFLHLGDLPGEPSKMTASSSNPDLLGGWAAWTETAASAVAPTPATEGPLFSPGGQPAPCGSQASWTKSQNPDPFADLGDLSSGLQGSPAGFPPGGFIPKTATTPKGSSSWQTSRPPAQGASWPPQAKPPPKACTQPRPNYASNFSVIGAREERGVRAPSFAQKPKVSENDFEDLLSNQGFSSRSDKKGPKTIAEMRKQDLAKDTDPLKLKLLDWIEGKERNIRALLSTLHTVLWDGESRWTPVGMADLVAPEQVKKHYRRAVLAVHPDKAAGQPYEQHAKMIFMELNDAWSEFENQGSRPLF
SLK, sequence (Q9H2G2 whole entry): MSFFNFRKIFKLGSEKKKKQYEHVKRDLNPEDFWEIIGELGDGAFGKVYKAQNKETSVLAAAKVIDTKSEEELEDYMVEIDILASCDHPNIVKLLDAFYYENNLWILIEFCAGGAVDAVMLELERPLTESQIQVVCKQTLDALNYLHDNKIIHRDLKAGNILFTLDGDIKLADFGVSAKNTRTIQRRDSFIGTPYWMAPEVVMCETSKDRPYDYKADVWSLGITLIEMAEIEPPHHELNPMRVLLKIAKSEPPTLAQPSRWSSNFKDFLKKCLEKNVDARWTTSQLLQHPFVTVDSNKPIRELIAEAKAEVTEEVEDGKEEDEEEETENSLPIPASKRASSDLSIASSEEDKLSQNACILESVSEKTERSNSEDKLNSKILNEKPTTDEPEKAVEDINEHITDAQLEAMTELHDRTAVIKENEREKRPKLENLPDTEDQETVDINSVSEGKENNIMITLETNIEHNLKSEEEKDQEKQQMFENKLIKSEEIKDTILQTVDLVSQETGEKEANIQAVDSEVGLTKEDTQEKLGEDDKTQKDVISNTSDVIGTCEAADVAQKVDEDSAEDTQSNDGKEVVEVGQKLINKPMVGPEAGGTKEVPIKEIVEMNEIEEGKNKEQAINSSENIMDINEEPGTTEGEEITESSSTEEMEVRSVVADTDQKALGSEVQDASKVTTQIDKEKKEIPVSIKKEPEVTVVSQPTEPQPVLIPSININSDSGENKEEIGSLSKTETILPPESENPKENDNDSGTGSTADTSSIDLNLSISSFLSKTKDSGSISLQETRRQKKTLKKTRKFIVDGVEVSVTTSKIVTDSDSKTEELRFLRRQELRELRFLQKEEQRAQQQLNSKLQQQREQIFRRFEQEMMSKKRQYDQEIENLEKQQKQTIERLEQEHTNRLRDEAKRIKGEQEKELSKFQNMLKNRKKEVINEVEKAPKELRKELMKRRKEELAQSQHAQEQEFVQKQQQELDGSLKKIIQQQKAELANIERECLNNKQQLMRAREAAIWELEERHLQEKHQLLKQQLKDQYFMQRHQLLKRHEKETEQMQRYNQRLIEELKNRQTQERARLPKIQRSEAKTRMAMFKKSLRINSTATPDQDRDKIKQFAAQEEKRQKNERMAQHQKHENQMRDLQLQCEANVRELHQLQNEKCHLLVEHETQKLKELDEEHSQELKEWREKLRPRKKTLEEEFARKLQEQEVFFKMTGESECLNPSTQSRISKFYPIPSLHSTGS

At GAK, `CNc1ncc2cc(-c3ccccc3Cl)c(=O)n(CCCCN)c2n1` [compound 4, 8-(4-Aminobutyl)-6-(2-chlorophenyl)-2-(methylamino)pyrido[2,3-d]pyrimidin-7(8H)-one] came in with an IC50 above 1000 nM. Besides, on MST2 (read-out: ∆Tm MR21 (4)), the ΔTm at 10 µM is 1 °C.
For the compound `CNc1ncc2cc(-c3cc(Cl)ccc3Cl)c(=O)n(CCCCN)c2n1` [compound 8, 8-(4-Aminobutyl)-6-(2,5-dichlorophenyl)-2-(methylamino)pyrido[2,3-d]pyrimidin-7(8H)-one], the 50% inhibitory concentration (IC50) on BMX was above 1000 nM.
For `CNc1ncc2cc(-c3ccc(-c4cccc(C)n4)cc3Cl)c(=O)n(CC3OCC(N)CO3)c2n1` (stereo not drawn) [compound 2, G-5555], the “∆Tm G-5555 (2)” value on MST2 (10 µM, binder) amounted to 6.9 degC.
With `CNc1ncc2cc(-c3cc(C(F)(F)F)ccc3Cl)c(=O)n(CCCCN)c2n1` [compound 9, 8-(4-Aminobutyl)-6-(2-chloro-5-(trifluoromethyl)phenyl)-2-(methylamino)pyrido[2,3-d]pyrimidin-7(8H)-one], the X-ray crystal structure on EpHA2 (kinase domain) was 8BIO (EpHA2-9 complex).
For `CNc1ncc2cc(-c3cc(F)c(-c4cccc(C)n4)cc3F)c(=O)n(CCCCN)c2n1` [compound 12, 8-(4-Aminobutyl)-6-(2,5-difluoro-4-(6-methylpyridin-2-yl)phenyl)-2-(methylamino)pyrido[2,3-d]pyrimidin-7(8H)-one], the ΔTm at 10 µM at MSSK1 was -0.2 °C; at SLK, 2.9 °C; at CK1e, 3.1 °C; on Erk3 it was 0.7 °C.
